# How the values were obtained:
# 62 cytokines = assay: Cytokine antibody array of LPS-stimulated macrophage culture medium; type: cell-based, murine
# Protocol: Cytokine antibody array. Murine cytokine antibody array (Cat. No. M0308003, RayBiotech Inc., Norcross, Ga., USA), which detects 62 cytokines on one membrane, was used to determine the profile of cytokines in the culture medium following the manufacturer's instructions. Briefly, the membranes were sequentially incubated with equal volume of cell-conditioned culture medium, primary biotin-conjugated antibody, and horseradish peroxidase-conjugated streptavidin. After exposing to X-ray film, the relative signal intensity was determined using the NIH image 1.59 software with reference to the positive controls on the membrane.
# nitric oxide = assay: LPS-induced nitric oxide release (Griess reaction); type: cell-based, murine; conditions: 100 μM, FIG. 2A lower panel
# Protocol: LPS stimulation. Adherent macrophages or monocytes were gently washed with, and cultured in, serum-free OPTI-MEM I medium two hours before stimulation with bacterial endotoxin (lipopolysaccharide, LPS, E. coli 0111:B4, Sigma-Aldrich). At 16 hours after LPS stimulation, levels of HMGB1 in the culture medium were determined as previously described (Chen et al. 2004; Rendon-Mitchell et al. 2003; Wang et al. 1999).
# (§1) Nitric oxide assay. The levels of nitric oxide in the culture medium were determined indirectly by measuring NO^2− production with a colorimetric assay based on the Griess reaction (Rendon-Mitchell et al. 2003). NO2-concentrations were determined with reference to a standard curve generated with sodium nitrite at various dilutions.
# TNF = assay: LPS-mediated TNF secretion in RAW 264.7 macrophages (ELISA); type: cell-based, murine; conditions: macrophages stimulated with LPS >200 ng/ml
# Protocol: Cell culture. Murine macrophage-like RAW 264.7 cells were obtained from the American Type Culture Collection (ATCC, Rockville, Md.), and primary peritoneal macrophages were isolated from Balb/C mice (male, 7-8 weeks, 20-25 grams) at 2-3 days after intraperitoneal injection of 2 ml thioglycollate broth (4%) as previously described (Chen et al. 2004; Rendon-Mitchell et al. 2003). Murine macrophages were pre-cultured in RPMI 1640 medium (Gibco BRL, Grand Island, N.Y.) supplemented with 10% fetal bovine serum (FBS) and 2 mmol/L glutamine. Human peripheral blood mononuclear cells (HuPBMCs) were isolated from the blood of healthy donors (Long Island Blood Bank, Melville, N.Y.) by density gradient centrifugation through Ficoll (Ficoll-Paque PLUS, Pharmacia, Piscataway, N.J.), and cultured in RPMI 1640 supplemented with 10% heat-inactivated human serum/0.2 mM L-glutamine as previously described (Rendon-Mitchell et al. 2003). LPS stimulation. […] The levels of TNF in the culture medium or serum were determined using commercial enzyme linked immunosorbent assay (ELISA) kits (Catalog no. MTA00, R & D Systems, Minneapolis, Minn.) with reference to standard curves of purified recombinant TNF at various dilutions as previously described (Chen et al. 2004; Rendon-Mitchell et al. 2003; Wang et al. 2006).
# lethal sepsis = assay: Lethal sepsis induced by cecal ligation and puncture (CLP) in Balb/C mice; type: in vivo
# Protocol: Animal models of endotoxemia and sepsis. This study was approved and performed in accordance with the guidelines for the care and use of laboratory animals at the Feinstein Institute for Medical Research, Manhasset, N.Y. Endotoxemia was induced in Balb/C mice (male, 7-8 weeks) by intraperitoneal injection of bacterial endotoxin (LPS, 15 mg/kg) as previously described (Chen et al. 2005; Wang et al. 1999; Wang et al. 2006). Sepsis was induced in male Balb/C mice (7-8 weeks, 20-25 g) or Sprague-Dawley rats (290-310 g) by cecal ligation and puncture (CLP) as previously described (Wang et al. 2006; Yang et al. 2002b). Herbal components were administered intraperitoneally into mice at indicated doses and time points, and mice were monitored for survival for up to two weeks. In parallel experiments, mice were euthanized to collect blood at 28 h (following two doses of herbal components at −0.5 and +24 h) after endotoxemia, and at 52 h (following two doses of herbal components at +24 and +48 h) after CLP.
# TNF ELISA. The levels of TNF in the culture medium or serum were determined using commercial enzyme linked immunosorbent assay (ELISA) kits (Catalog no. MTA00, R & D Systems, Minneapolis, Minn.) with reference to standard curves of purified recombinant TNF at various dilutions as previously described (Chen et al. 2004; Rendon-Mitchell et al. 2003; Wang et al. 2006).
# as §1
# (§2) HMGB1 western blotting analysis. The levels of HMGB1 in the culture medium or serum were determined by western blotting analysis as previously described (Chen et al. 2004; Rendon-Mitchell et al. 2003; Wang et al. 1999). The relative band intensity was quantified using NIH image 1.59 software to determine HMGB1 levels with reference to standard curves generated with purified HMGB1.
# Tissue histology. At 48 hours after CLP, mice were euthanized in CO2 Chamber, and immediately perfused (transcardially) with phosphate buffer saline and 4% paraformaldehyde. Various tissues were harvested, sectioned, and stained with hematoxylin and eosin for morphology evaluation.
# HMGB1 = assay: LPS-induced HMGB1 release in primary human peripheral blood mononuclear cells; type: cell-based; conditions: FIG. 2B
# Protocol: Cell culture. Murine macrophage-like RAW 264.7 cells were obtained from the American Type Culture Collection (ATCC, Rockville, Md.), and primary peritoneal macrophages were isolated from Balb/C mice (male, 7-8 weeks, 20-25 grams) at 2-3 days after intraperitoneal injection of 2 ml thioglycollate broth (4%) as previously described (Chen et al. 2004; Rendon-Mitchell et al. 2003). Murine macrophages were pre-cultured in RPMI 1640 medium (Gibco BRL, Grand Island, N.Y.) supplemented with 10% fetal bovine serum (FBS) and 2 mmol/L glutamine. […]
# LPS stimulation. […] At 16 hours after LPS stimulation, levels of HMGB1 in the culture medium were determined as previously described (Chen et al. 2004; Rendon-Mitchell et al. 2003; Wang et al. 1999).
# as §2
compound,measurement,setting,value
"Cc1c(S(=O)(=O)[O-])oc2c1C(=O)C(=O)c1c-2ccc2c1CCCC2(C)C.[Na+] [TSNIIA-SS, tanshinone IIA sodium sulfonate]",attenuation of LPS-induced release of IL-1α,"62 cytokines; 100 μM, cytokine array",50±7%
same,attenuation of LPS-induced release of IL-12p70,"62 cytokines; 100 μM, cytokine array",45±5%
same,attenuation of LPS-induced release of MCP-5,"62 cytokines; 100 μM, cytokine array",25±5%
same,attenuation of LPS-induced release of platelet factor 4 (PF-4),"62 cytokines; 100 μM, cytokine array",35±6%
same,"effect on release of most cytokines, including IL-6, IL-12p40/p70, KC, MCP-1, MIP-1α, MIP-1γ, MIP-2 and TNF","62 cytokines; 100 μM, RAW 264.7 cells or primary peritoneal macrophages",did not suppress
same,number of other cytokines whose release is not affected,62 cytokines; at concentrations that completely abrogate LPS-induced HMGB1 release,58 out of 62
same,effect on LPS-induced release of nitric oxide,nitric oxide,did not completely block
same,inhibitory effects on TNF release at higher LPS,TNF,often lost
same,signs of hepatic necrosis,"lethal sepsis; 15 mg/kg, histology 48 hours post onset of sepsis, control 2 out of 12 survivors",not observed in any of the 15 survivors
same,circulating nitric oxide levels,"lethal sepsis; 52 h after the onset of sepsis, vehicle 18.0±4.5 μmol/L, n=3, P>0.05",15.5 ± 3.3 µmol/L
same,circulating TNF levels,"lethal sepsis; 52 h after the onset of sepsis, vehicle 65+15 ng/L, P>0.05",85+23 ng/L
same,"animal survival rate, lethal sepsis","lethal sepsis; repeated administration at 24, 48, 72, 96 hours post sepsis, control 33%, P<0.05",73%
same,circulating HMGB1 levels in septic mice,"lethal sepsis; repeated administration, 52 h post CLP, FIG. 7A, P<0.05","dose-dependently, and significantly attenuated"
same,"survival rate, lethal sepsis","lethal sepsis; single i.p. dose 15 mg/kg 24 h after onset of sepsis, saline control 33%, P>0.05",50%
same,effect on LPS-induced HMGB1 release,HMGB1,effectively inhibited

# From US8513227B2, “Inhibition of inflammatory cytokine production with tanshinones” (The Feinstein Institute for Medical Research, priority 2006, dated 2013)
